Drawing on ChEMBL document CHEMBL1145756, “Structure-activity relationships of indole cytosolic phospholipase A(2)alpha inhibitors: substrate mimetics” (Bioorg Med Chem Lett, 2003), this text covers IC50 and bioavailability for 22 compounds.

For orientation: IC50 means the point on the concentration scale where inhibition reaches its midpoint. The low end stands for inhibition by little substance, the high end for a need for much substance. In general, bioavailability refers to dose-corrected exposure relative to a reference, in per cent. High values mean good availability, low ones poor availability.

Data set [1] concerns the target T1, Cytosolic phospholipase A2 (Homo sapiens, UniProt P47712).
T1 sequence (P47712 whole entry): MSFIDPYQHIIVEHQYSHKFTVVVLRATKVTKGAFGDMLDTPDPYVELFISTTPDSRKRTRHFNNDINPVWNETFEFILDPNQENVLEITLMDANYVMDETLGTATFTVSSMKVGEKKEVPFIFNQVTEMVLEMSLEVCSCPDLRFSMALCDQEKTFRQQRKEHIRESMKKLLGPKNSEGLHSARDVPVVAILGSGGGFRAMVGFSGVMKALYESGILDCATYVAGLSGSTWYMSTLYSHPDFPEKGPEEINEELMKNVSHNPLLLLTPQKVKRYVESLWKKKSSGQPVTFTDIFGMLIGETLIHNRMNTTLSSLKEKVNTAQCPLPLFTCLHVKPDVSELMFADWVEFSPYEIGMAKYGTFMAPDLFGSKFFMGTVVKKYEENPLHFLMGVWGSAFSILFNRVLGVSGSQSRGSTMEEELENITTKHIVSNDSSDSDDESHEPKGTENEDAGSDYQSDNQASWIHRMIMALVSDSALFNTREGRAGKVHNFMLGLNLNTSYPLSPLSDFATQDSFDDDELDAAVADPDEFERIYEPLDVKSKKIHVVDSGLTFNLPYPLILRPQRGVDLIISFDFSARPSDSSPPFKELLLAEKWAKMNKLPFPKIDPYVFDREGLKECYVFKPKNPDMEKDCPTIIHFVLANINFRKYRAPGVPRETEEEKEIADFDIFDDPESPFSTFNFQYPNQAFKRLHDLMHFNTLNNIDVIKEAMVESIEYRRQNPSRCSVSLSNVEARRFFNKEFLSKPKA
The data set is described as follows: In vitro inhibition of cystolic phospholipase A2 alpha.

A short description of data set [2]: Oral bioavailability in rat (dose 10 mg/kg). It counts as ADME, organism-based. The note with it: in vivo.
The species named for a further data set is Homo sapiens. Nature of the data set: Inhibitory concentration against arachidonic acid release determined in human neutrophils PMN assay. It counts as functional.
Data set [3] concerns the target T1, Cytosolic phospholipase A2. Nature of the data set: Inhibitory concentration against cystolic phospholipase A2 alpha receptor (c-PLA2 alpha) using coumarin assay.

As to `COc1cc(C(=O)O)ccc1Cc1cn(C(c2ccccc2)c2ccccc2)c2ccc(NC(=O)OC3CCCC3)cc12`, the IC50 in data set [1] was found to be 5 µM.

With `COc1cc(C(=O)O)ccc1Cc1cn(C(c2ccccc2)c2ccccc2)c2ccc(NS(C)(=O)=O)cc12`, the IC50 in data set [1] was determined as 20 µM.

`COc1cc(C(=O)O)ccc1Cc1cn(C(c2ccccc2)c2ccccc2)c2ccc(S(C)(=O)=O)cc12` displayed an IC50 in data set [1] of 2 µM.

In data set [1], `COc1cc(C(=O)O)ccc1Cc1cn(C(c2ccccc2)c2ccccc2)c2ccc(F)cc12` had an IC50 of 1 µM.

In data set [1], `COc1cc(C(=O)O)ccc1Cc1cn(C(c2ccccc2)c2ccccc2)c2cccc(Cl)c12` gave an IC50 of 4.5 µM.

Consider `COc1cc(C(=O)O)ccc1Cc1cn(C(c2ccccc2)c2ccccc2)c2cc(Cl)ccc12`, for which the IC50 in data set [1] is 0.8 µM. The compound further returned a bioavailability in data set [2] of 63%.

`COc1cc(C(=O)O)ccc1Cc1cn(C(c2ccccc2)c2ccccc2)c2ccccc12`: the IC50 in data set [1] was 3.6 µM.

With `COc1cc(C(=O)NS(=O)(=O)c2ccccc2C)ccc1Cc1cn(Cc2ccncc2)c2ccc(NC(=O)OC3CCCC3)cc12`, the IC50 in data set [1] is 38 µM.

For the compound `CCCCNC(=O)Nc1ccc2c(c1)c(Cc1ccc(C(=O)O)cc1OC)cn2C(c1ccccc1)c1ccccc1`, the IC50 in data set [1] turned out to be 15 µM.

Take `COc1cc(C(=O)O)ccc1Cc1cn(C(c2ccccc2)c2ccccc2)c2ccc(Br)cc12`: the IC50 is 1.2 µM in the data set listed under Homo sapiens and 0.6 µM in data set [3]. In data set [2], this compound registered a bioavailability of 16%.

In data set [1], `COc1cc(C(=O)NS(=O)(=O)c2ccccc2C)ccc1Cc1cn(C2CCCC2)c2ccc(NC(=O)OC3CCCC3)cc12` had an IC50 of 17 µM.

In data set [1], `COc1cc(C(=O)O)ccc1Cc1cn(C(c2ccccc2)c2ccccc2)c2ccc(N)cc12` yielded a concentration for half-maximal inhibition (IC50) of 41 µM.

Compound `COc1cc(C(=O)NS(=O)(=O)c2ccccc2C)ccc1Cc1cn(CC2CC2)c2ccc(NC(=O)OC3CCCC3)cc12` registered an IC50 in data set [1] of 20 µM.

In data set [3], `COc1cc(C(=O)O)ccc1Cc1cn(C(c2ccccc2)c2ccccc2)c2ccc(C)cc12` showed an IC50 of 0.9 µM. In addition, in data set [2], the bioavailability amounted to 38%.

`COc1cc(C(=O)O)ccc1Cc1cn(C(c2ccccc2)c2ccccc2)c2ccc(N(C)C)cc12`: in data set [1], the IC50 was 24 µM.

As to `COc1cc(C(=O)O)ccc1Cc1cn(C(c2ccccc2)c2ccccc2)c2ccc(Cl)cc12`, the IC50 is 1.8 µM in the data set filed under Homo sapiens and 0.4 µM in data set [3]. In data set [2], this compound yielded a bioavailability of 22%.

In data set [1], `COc1cc(C(=O)O)ccc1Cc1cn(C(c2ccccc2)c2ccccc2)c2c(Cl)cccc12` yielded an IC50 of 2.1 µM.

Regarding `COc1cc(C(=O)O)ccc1Cc1cn(C(c2ccccc2)c2ccccc2)c2ccc([N+](=O)[O-])cc12`, the IC50 in the data set filed under Homo sapiens was found to be 1.8 µM; in data set [3], 0.4 µM.

Take `COc1ccc2c(c1)c(Cc1ccc(C(=O)O)cc1OC)cn2C(c1ccccc1)c1ccccc1`: it took 1.9 µM to reach half-maximal inhibition in data set [1] (IC50).

`COc1cc(C(=O)NS(=O)(=O)c2ccccc2C)ccc1Cc1cn(C(c2ccccc2)c2ccccc2)c2ccc(NC(=O)OC3CCCC3)cc12` showed an IC50 in data set [1] of 6 µM.

As to `COc1cc(C(=O)O)ccc1Cc1cn(C(c2ccccc2)c2ccccc2)c2ccc(C#N)cc12`, the values for the IC50 (in the data set filed under Homo sapiens; in data set [3]) were 1.3 µM and 0.8 µM, respectively. The bioavailability in data set [2] worked out at 19%.

As for `COc1cc(C(=O)NS(=O)(=O)c2ccccc2C)ccc1Cc1cn(C)c2ccc(NC(=O)OC3CCCC3)cc12` [ZAFIRLUKAST], the IC50 in data set [1] stood at 85 µM.
